# Test results from ChEMBL document CHEMBL1201862, “PubChem BioAssay data set” (2004).
# Activity calls are given as the source filed them.
# Columns and labels:
# [1] = biological target: Latent membrane protein 1 (Human herpesvirus 4 (strain B95-8), UniProt P03230); test: TES1-eGFP NF-kB reporter inhibition versus Tet-On dsRED, dose response, selectivity assay for LMP1 NF-kB inhibitor project, imaging, HEK293T, dual-color eGFP/dsRED, cherry-picks (AID 588398); type: functional, cell-based
# [2] = Luminescence Cell-Based Dose Retest to Confirm Inhibitors of Cancer Stem Cells. [Related pubchem assays (depositor defined):AID2717, AID2721]; type: functional; details: Homo sapiens
# CHO = test: cytotoxicity in TLR9-MyD88 CHO cells, dose response, cytotoxicity control for TLR9-MyD88 binding inhibitor project, cell-based, luminescence (AID 588339); type: functional, hamster; details: Cricetulus griseus;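 also: CHO cells stably coexpressing TLR9 and MyD88 fusions from primary screen; compound exposure lasted 48 hours before viability readout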
# Beta Lactamase = Beta Lactamase (Pseudomonas aeruginosa, UniProt Q932Y6); test: beta-lactamase reporter inhibitor potency, dose response, artefact control for TLR9-MyD88 binding inhibitor project, BLA reporter cells, FRET fluorescence (AID 588341); type: cell-based;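 also: cell based assay in CHO-K1 cells stably expressing beta-lactamase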
# HEK293 [3] = test: inhibitors of LMP1-driven NF-kB reporter, dose response, cell-based, HEK293, luciferase, cherry-pick (AID 588343); type: functional; details: Homo sapiens
# Protein Rev = biological target: T1, Protein Rev (Human immunodeficiency virus type 1 group M subtype B (isolate HXB2)(HIV-1), UniProt P04618); test: inhibitors of Rev binding to RRE RNA, dose response, biochemical, fluorescence polarization, HIV-1 (AID 434976); set-up: species or system Human immunodeficiency virus 1
# T1 sequence (P04618 whole entry): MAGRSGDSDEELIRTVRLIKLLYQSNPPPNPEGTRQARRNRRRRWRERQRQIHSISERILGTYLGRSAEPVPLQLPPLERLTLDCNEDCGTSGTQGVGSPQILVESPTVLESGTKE
# [4] = biological target: T2, Female germline-specific tumor suppressor gld-1 (Caenorhabditis elegans, UniProt Q17339); test: inhibitors of GLD-1 binding to TGE RNA, dose response, biochemical, fluorescence polarization, C. elegans (AID 2802);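 also: fluorescence polarization of labeled TGE RNA bound by purified gld-1 protein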
# T2 sequence (Q17339 whole entry): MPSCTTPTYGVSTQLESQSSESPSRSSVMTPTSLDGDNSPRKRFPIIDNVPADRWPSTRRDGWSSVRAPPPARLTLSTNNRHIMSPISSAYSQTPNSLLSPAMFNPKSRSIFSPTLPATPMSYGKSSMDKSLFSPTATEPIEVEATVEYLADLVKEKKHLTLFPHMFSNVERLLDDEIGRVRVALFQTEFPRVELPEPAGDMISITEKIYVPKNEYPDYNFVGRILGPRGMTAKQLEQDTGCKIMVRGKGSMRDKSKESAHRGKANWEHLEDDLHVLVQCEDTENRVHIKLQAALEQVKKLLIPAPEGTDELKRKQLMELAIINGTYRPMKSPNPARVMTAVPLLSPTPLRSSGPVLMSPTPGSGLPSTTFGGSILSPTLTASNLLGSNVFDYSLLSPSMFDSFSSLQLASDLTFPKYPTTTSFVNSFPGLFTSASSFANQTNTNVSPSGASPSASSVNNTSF
# Cytochrome P450 3A4 = Cytochrome P450 3A4 (Homo sapiens, UniProt P08684);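 also: CYP3A4 tested as one member of a cytochrome P450 panel screen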
# [5] = biological target: T3, RNA-binding protein pos-1 (Caenorhabditis elegans, UniProt G5EF15); test: inhibitors of POS-1/mex-3 RNA binding, dose response, biochemical, fluorescence polarization (AID 1964);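 also: purified POS-1 fused to maltose binding protein made in E. coli; potency of compounds blocking POS-1 binding to fluorescent RNA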
# T3 sequence (G5EF15 whole entry): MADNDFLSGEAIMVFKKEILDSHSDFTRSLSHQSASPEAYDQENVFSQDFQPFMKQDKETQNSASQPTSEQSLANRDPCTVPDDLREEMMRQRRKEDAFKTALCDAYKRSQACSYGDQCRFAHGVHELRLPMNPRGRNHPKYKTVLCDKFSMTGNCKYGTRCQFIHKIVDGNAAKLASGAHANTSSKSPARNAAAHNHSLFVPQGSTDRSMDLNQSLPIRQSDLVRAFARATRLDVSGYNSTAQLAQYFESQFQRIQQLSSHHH
# [6] = Luminescence Cell-Based Dose Confirmation HTS to Identify Activators of 5'UTR Stem-Loop Driven Alpha-Synuclein mRNA Translation in H4 Neuroglioblastoma Cells. [Related pubchem assays: 1829 (Project Summary), 1814 (Primary HTS)]; type: functional
# [7] = Luminescence Cell-Based Dose Response HTS to Identify Activators of Luciferase Translation or Activity in H4 […] Cells. [Related pubchem assays: 1829 (Project Summary), 1814 (Primary HTS)]; type: functional
# H4 = test: Luminescence Cell-Based Dose Response HTS to Identify Activators of 5'UTR Stem-Loop Driven Prion Protein mRNA Translation in H4 Neuroglioblastoma Cells. [Related pubchem assays: 1829 (Project Summary), 1814 (Primary HTS)]; type: functional; details: Homo sapiens
# [8] = biological target: T4, Zinc finger protein mex-5 (Caenorhabditis elegans, UniProt Q9XUB2); test: MEX-5/TCR-2 RNA interaction inhibitors, dose response, biochemical, C. elegans, fluorescence polarization (AID 1960)
# T4 sequence (Q9XUB2 whole entry): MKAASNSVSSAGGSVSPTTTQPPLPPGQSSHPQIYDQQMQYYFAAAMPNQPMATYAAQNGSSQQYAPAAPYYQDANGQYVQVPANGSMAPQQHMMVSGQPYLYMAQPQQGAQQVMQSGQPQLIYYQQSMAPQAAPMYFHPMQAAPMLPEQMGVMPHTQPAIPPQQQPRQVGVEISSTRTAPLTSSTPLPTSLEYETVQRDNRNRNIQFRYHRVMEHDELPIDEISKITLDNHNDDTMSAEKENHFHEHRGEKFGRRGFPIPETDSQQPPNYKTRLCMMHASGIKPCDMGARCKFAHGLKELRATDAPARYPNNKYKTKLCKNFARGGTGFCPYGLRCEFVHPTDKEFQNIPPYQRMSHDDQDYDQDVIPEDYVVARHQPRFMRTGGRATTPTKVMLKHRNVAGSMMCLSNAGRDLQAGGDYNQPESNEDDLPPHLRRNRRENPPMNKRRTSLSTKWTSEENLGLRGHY
# Insulin-degrading enzyme [9] = biological target: T5, Insulin-degrading enzyme (Homo sapiens, UniProt P14735); test: activators of recombinant IDE enzyme, dose response, counter-screen for IDE activator project, biochemical, fluorescence polarization (AID 588681)
# T5 sequence (P14735 whole entry): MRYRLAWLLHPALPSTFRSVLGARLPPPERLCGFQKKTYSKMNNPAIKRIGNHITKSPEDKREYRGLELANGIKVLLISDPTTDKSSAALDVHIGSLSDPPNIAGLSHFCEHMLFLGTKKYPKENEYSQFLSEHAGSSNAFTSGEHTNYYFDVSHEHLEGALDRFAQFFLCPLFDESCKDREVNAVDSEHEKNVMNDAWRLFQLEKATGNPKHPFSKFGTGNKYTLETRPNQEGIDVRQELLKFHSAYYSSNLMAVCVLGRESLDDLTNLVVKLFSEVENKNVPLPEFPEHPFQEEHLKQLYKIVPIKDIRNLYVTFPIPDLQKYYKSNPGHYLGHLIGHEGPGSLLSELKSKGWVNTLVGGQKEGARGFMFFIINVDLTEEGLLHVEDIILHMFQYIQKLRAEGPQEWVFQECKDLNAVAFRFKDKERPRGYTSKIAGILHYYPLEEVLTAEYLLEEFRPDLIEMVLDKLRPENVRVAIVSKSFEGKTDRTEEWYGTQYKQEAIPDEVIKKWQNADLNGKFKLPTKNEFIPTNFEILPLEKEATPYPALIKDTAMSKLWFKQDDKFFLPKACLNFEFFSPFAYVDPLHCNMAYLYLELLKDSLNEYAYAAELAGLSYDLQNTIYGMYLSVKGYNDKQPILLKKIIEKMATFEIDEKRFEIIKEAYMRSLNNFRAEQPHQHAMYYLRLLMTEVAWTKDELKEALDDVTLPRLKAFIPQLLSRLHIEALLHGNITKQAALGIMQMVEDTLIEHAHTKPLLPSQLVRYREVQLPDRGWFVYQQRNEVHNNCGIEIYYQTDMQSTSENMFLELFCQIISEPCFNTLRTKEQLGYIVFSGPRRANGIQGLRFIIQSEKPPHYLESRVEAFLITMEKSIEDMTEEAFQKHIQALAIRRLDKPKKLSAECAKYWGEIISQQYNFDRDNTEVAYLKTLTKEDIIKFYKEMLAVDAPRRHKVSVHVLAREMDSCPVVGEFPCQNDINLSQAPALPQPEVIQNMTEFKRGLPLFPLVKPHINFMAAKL
# Insulin-degrading enzyme [10] = biological target: T5, Insulin-degrading enzyme; test: activators of endogenous IDE in HEK cells, dose response, cell-based, fluorescence polarization (AID 588439); type: functional
# INS1 = test: beta cell apoptosis inhibitors, cytokine rescue, dose response, luminescence, retest (AID 449756); type: functional, cell-based; details: Rattus norvegicus;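 also: cell death triggered by IL-1 beta plus TNF-alpha plus IFN-gamma mixture; protective hits raise ATP signal compared with cytokine alone wells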
# HEK293 [11] = test: HEK cell cytotoxicity by LDH release, dose response, cytotoxicity control for IDE activator project, fluorescence, HEK cells (AID 588440); type: functional, cell-based; details: Homo sapiens;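 also: cytotoxicity by LDH release measuring loss of membrane integrity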
# HEK293 [12] = test: optical interference in Abeta FP readout, dose response, artefact control for IDE activator project, biochemical, fluorescence polarization (AID 588442); type: functional, cell-based; details: Homo sapiens
# [13] = biological target: Sphingosine 1-phosphate receptor 2 (Homo sapiens, UniProt O95136); test: Dose Response Cell Based Assay for Antagonists of the S1P2 Receptor. [Related pubchem assays: 856, 736 ]; type: functional
# BJ [14] = test: cytotoxicity toward BJ-TERT fibroblasts, dose response, cell-based, RAS-independent, luminescence (AID 1933); type: functional; details: Homo sapiens
# BJ [15] = test: cells; type: functional, cell-based; details: Homo sapiens
# BJ [16] = test: cytotoxicity toward BJ-TERT-LT-ST fibroblasts, dose response, cell-based, RAS-independent, luminescence (AID 1935); type: functional; details: Homo sapiens;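 also: BJ fibroblasts immortalized with TERT plus LT and ST oncogenes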
# [17] = cytotoxicity toward DRD oncogenic fibroblasts, dose response, cell-based, non-viral oncogenic, luminescence (AID 1934); type: functional; details: Homo sapiens
# [18] = biological target: T6, Mannose-6-phosphate isomerase (Homo sapiens, UniProt P34949); test: human PMI inhibitors, high substrate, primary screen, biochemical, fluorescence intensity, high mannose 6-phosphate (AID 1220)
# T6 sequence (P34949 whole entry): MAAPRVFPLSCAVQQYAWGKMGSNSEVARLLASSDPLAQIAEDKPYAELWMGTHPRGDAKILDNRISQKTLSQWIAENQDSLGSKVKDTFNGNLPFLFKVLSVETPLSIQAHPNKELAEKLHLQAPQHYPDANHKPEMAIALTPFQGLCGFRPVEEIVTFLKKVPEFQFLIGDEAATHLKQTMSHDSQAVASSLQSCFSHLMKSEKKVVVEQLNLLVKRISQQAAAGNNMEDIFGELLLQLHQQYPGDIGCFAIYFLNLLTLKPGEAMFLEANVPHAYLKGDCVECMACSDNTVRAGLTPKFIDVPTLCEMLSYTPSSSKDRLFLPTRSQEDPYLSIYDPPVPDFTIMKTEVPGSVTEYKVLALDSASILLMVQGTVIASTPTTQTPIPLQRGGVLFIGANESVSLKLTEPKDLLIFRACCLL
# [19] = biological target: DNA dC->dU-editing enzyme APOBEC-3A (Homo sapiens, UniProt P31941); test: APOBEC3A DNA deaminase inhibitors, dose response, biochemical (AID 504722); type: functional
# [20] = biological target: DNA dC->dU-editing enzyme APOBEC-3G (Homo sapiens, UniProt Q9HC16); test: Dose Response confirmation of small molecule APOBEC3G DNA Deaminase Inhibitors via a fluorescence-based single-stranded DNA deaminase assay. [Related pubchem assays (depositor defined):AID493012, AID493028]; type: functional
# BJ [21] = test: cytotoxicity toward Ras-transformed BJeLR fibroblasts, dose response, cell-based, alamar blue fluorescence, cherrypicked samples (AID 2631); type: functional; details: Homo sapiens;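 also: confirmatory dose-response assay in RAS-dependent BJ fibroblasts engineered with TERT, LT and ST, with cytotoxicity read by fluorescence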
# Chain of Beta Lactamase (Q932Y6 whole entry): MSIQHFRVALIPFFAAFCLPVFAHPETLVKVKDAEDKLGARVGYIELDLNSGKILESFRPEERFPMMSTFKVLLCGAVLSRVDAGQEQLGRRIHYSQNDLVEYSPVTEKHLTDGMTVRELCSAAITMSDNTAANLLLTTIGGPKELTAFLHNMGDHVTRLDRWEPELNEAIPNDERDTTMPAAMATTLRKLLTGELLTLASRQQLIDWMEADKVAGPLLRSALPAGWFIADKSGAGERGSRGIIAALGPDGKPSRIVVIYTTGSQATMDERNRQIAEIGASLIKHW
# Chain of Latent membrane protein 1 (P03230 whole entry): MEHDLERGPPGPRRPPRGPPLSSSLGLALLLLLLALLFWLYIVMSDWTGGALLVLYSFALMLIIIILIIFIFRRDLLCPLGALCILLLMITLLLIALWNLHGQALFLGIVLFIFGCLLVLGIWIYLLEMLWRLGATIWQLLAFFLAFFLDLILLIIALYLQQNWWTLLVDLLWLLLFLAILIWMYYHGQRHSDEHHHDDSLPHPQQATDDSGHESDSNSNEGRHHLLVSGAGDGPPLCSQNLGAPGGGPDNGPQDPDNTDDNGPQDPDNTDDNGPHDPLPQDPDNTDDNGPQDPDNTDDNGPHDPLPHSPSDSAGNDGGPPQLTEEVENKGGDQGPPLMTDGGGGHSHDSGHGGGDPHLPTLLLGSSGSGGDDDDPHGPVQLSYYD
# Chain of Sphingosine 1-phosphate receptor 2 (O95136 whole entry): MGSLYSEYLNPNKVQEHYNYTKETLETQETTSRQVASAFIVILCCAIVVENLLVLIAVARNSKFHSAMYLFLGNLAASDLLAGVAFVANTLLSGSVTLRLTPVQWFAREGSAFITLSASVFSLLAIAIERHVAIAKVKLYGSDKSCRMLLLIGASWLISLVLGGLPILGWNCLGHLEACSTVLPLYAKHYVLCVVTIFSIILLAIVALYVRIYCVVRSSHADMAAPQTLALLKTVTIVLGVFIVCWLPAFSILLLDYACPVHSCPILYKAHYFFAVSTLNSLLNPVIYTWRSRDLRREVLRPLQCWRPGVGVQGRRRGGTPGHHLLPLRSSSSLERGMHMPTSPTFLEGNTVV
# Chain of Cytochrome P450 3A4 (P08684 whole entry, the tested form may be a part): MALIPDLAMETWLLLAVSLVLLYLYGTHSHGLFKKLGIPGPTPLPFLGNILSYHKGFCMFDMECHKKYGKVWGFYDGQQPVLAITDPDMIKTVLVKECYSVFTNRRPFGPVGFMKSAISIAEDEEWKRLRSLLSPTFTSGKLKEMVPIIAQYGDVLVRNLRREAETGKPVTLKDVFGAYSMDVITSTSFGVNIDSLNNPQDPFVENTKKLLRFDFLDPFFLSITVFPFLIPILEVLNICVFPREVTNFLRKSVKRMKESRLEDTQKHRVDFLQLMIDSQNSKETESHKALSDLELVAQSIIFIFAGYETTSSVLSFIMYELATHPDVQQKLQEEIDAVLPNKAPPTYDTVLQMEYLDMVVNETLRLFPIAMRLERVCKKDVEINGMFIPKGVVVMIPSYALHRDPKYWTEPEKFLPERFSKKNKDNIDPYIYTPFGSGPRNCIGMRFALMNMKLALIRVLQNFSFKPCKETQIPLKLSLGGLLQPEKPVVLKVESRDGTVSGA
# Chain of DNA dC->dU-editing enzyme APOBEC-3G (Q9HC16 whole entry): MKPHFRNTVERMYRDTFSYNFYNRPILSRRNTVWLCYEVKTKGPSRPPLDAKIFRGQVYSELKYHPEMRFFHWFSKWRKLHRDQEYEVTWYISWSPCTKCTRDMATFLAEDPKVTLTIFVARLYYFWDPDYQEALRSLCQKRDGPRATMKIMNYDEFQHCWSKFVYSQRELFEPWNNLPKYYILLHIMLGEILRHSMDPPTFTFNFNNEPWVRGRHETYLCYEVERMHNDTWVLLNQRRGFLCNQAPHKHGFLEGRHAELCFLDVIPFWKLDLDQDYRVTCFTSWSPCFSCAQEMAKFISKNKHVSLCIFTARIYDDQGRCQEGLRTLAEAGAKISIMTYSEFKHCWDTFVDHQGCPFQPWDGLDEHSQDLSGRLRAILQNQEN
# Chain of DNA dC->dU-editing enzyme APOBEC-3A (P31941 whole entry): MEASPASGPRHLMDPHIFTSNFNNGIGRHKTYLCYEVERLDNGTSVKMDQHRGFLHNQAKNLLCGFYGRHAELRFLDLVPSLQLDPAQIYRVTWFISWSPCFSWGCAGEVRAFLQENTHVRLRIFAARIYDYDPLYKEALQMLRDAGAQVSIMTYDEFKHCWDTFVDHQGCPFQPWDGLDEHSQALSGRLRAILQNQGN
structure (smiles),measurement,setting,value
COc1cccc(-c2nc(NCc3ccccc3)c3ccccc3n2)c1O,AC50,[1],91 µM (active)
CCC(C)Sc1ccc(-c2nc3cnccn3c2NC2CCCCC2)cc1 (stereo not given),AC50,[2],3.63 µM (active)
same,IC50,CHO,21.4 µM (inactive)
same,IC50,Beta Lactamase,3.68 µM (active)
Cc1ccc(S(=O)(=O)NC(CC(C)C)C(=O)NCC(c2ccco2)N2CCCCC2)cc1 (stereo not given),AC50,HEK293 [3],1.8 µM (active)
same,AC50,[1],24.5 µM (active)
Cc1ccc(S(=O)(=O)N[C@H](C(=O)Oc2ccc3c(C(F)(F)F)cc(=O)oc3c2)c2ccccc2)cc1,IC50,Protein Rev,26.9 µM (not active)
same,IC50,[4],3.89 µM (active)
same,IC50,CHO,> 49.7 µM (inactive)
same,IC50,Beta Lactamase,3.73 µM (active)
same,AC50,Cytochrome P450 3A4,25.1 µM (inconclusive)
Cc1ccc(NNC2=C3N=NN=C3C=CC2=O)cc1,EC50,[5],22.4 µM (active)
same,EC50,[6],0.399 µM (active)
same,EC50,[7],50.3 µM (active)
same,EC50,H4,> 120 µM (not active)
same,EC50,[8],2.99 µM (active)
same,EC50,Insulin-degrading enzyme [9],1.32 µM (active)
same,EC50,Insulin-degrading enzyme [10],0.891 µM (active)
same,AC50,INS1,5.05 µM (active)
same,IC50,HEK293 [11],> 89.3 µM (inactive)
same,EC50,HEK293 [12],0.659 µM (active)
CC1=C/C(=N\OS(=O)(=O)c2ccccc2)C=CC1=O,IC50,[13],5.98 µM (active)
same,EC50,BJ [14],2.56 µM (active)
same,EC50,BJ [15],3.33 µM (active)
same,EC50,BJ [16],4.43 µM (inconclusive)
same,EC50,[17],6.19 µM (active)
same,IC50,[18],2.71 µM (active)
same,IC50,[19],> 100 µM (inactive)
same,IC50,[20],7.43 µM (active)
same,EC50,BJ [21],0.542 µM (inconclusive)
